Patent publication US20190343908A1, “Therapeutic Combination for the Treatment of Cancer” (Nerium Biotechnology Inc., priority 2011, published 2019)

Tests used:
[1] = test system: MDA-MB 231 (human breast cancer); assay: Methyl-Tetrazolium viability assay, MDA-MB 231; type: cell-based; settings: for MTT 24 h / MTT 48 h / MTT 72 h: Run 3 average
Excerpt: (§1) Three different viability assays were chosen to complement each other and yielded results dependent on concentration and cell line: the Methyl Tetrazolium dye assay, the Sulforhodamine B fluorescent dye assay, and the Crystal Violet dye assay.
The Methyl-Tetrazolium dye assay measures the activity of enzymes in mitochondria. The dye precursor is taken up by cells, where it undergoes reduction to the purple formazan. It measures only the mitochondrial activity and, thus, it is not always a reliable indication of whether the cells themselves are alive or dead, since even a recently dead cell has […] enzyme activity in mitochondria. Intracellular glucose concentration, pH, and time before assay all affect the measurements.
(§2) The Methyl Tetrazolium, Sulforhodamine B, and Crystal Violet assays were used to assess cell viabilities. The incubation times were 24 hours, 48 hours, and 72 hours. The Nerium oleander extract Anvirzel™ (a hot water extract of oleander obtained from Salud Integral, Honduras) was tested in concentrations ranging from 0.01 ng/mL to 10 ng/mL.
(§3) Cells were detached by trypsinization (Trypsin-0.25% EDTA, Invitrogen, 25200-072) during the logarithmic phase of culture growth and plated in 96-well plates (18.000 cells/well) (Corning, Costar 359) in a final volume of 200 μl of medium per well. […] The absorbance was measured after 24 hours, 48 hours, and 72 hours of incubation.
For the Methyl-Tetrazolium assay, the dye (Sigma, M2128; 5 mg/mL, diluted in phosphate-buffered saline) was added to each well and plates were incubated for 3 hours at 37° C. After the end of the incubation period, the medium was discarded and the cells were rinsed with phosphate-buffered saline. Finally, the formazan crystals were dissolved in dimethylsulphoxide (Sigma, D4540).
(§4) The optical density of each plate was measured on a μQuant spectrophotometer and the data were analyzed with Gen5 software (μQuant Biomolecular Spectrophotometer MQX200 and Gen5™ Microplate Data Collection & Analysis software, BioTek® Instruments. Inc, April 2008). Absorbance was measured at 570 nm for all assays and a second wavelength was measured in order to subtract noise. For the Methyl-Tetrazolium assay this second wavelength was 630 nm and for the Sulforhodamine B and Crystal Violet assays it was 690 nm.

[2] = test system: COLO699N lung cancer cell line; assay: Crystal Violet viability assay, COLO699N; type: cell-based, human; parameters: key to CVE Average: absorbance at 570 nm (crystal violet), background wavelength subtracted; settings: for Average CVE 24 h / Average CVE 48 h / Average CVE 72 h: COLO699N Run 1; for ABSORBANCE: COLO699N, 0.1 μg/mL cisplatin
Excerpt: as §1
The Sulforhodamine B and Crystal Violet assays provide information about protein and were used to complement the Methyl-Tetrazolium dye assay. […] It is used for the quantification of cellular proteins of cultured cells. The assay using Crystal Violet, a dye that binds electrostatically to proteins and stains DNA, provides a reliable, simple assay for measuring viability of cells.
as §2, §3
For the Crystal Violet assay, the medium was removed from the 96-well plates, the plates rinsed with PBS (Sigma, P3813) and then the cells were […] by the addition of 10% formalin (MERCK, 1.04003.2500) for 20 minutes at RT. Formalin was removed and 0.25% aqueous crystal violet (Sigma, HT901), dissolved in water, was added for 10 minutes at RT. Unbound Crystal Violet was rinsed by washing with water and finally 33% acetic acid was added to dissolve the dye.
as §4

Compound: N.N.[Cl][Pt][Cl] [cisplatin]
- MTT 24 h Average ([1]; Run 1, 0.1 μg/ml CDDP): 0.019
- MTT 48 h Average ([1]; Run 1, 0.1 μg/ml CDDP): 0.002
- MTT 72 h Average ([1]; Run 1, 0.1 μg/ml CDDP): 0.04
- MTT 24 h Average ([1]; Run 1, 1 μg/ml CDDP): 0.007
- MTT 48 h Average ([1]; Run 1, 1 μg/ml CDDP): 0.004
- MTT 72 h Average ([1]; Run 1, 1 μg/ml CDDP): 0.006
- MTT 24 h Average ([1]; Run 1, 10 μg/ml CDDP): 0.015
- MTT 48 h Average ([1]; Run 1, 10 μg/ml CDDP): 0.007
- MTT 72 h Average ([1]; Run 1, 10 μg/ml CDDP): 0.015
- MTT 24 h Average ([1]; Run 1, 100 μg/ml CDDP): 0.008
- MTT 48 h Average ([1]; Run 1, 100 μg/ml CDDP): 0.008
- MTT 72 h Average ([1]; Run 1, 100 μg/ml CDDP): 0.006
- MTT 24 h Average ([1]; Run 2, 0.1 μg/ml CDDP): 0.044
- MTT 48 h Average ([1]; Run 2, 0.1 μg/ml CDDP): 0.063
- MTT 72 h Average ([1]; Run 2, 0.1 μg/ml CDDP): 0.106
- MTT 24 h Average ([1]; Run 2, 1 μg/ml CDDP): 0.009
- MTT 48 h Average ([1]; Run 2, 1 μg/ml CDDP): 0.007
- MTT 72 h Average ([1]; Run 2, 1 μg/ml CDDP): 0.005
- MTT 24 h Average ([1]; Run 2, 10 μg/ml CDDP): 0.039
- MTT 48 h Average ([1]; Run 2, 10 μg/ml CDDP): 0.049
- MTT 72 h Average ([1]; Run 2, 10 μg/ml CDDP): 0.07
- MTT 24 h Average ([1]; Run 2, 100 μg/ml CDDP): 0.008
- MTT 48 h Average ([1]; Run 2, 100 μg/ml CDDP): 0.006
- MTT 72 h Average ([1]; Run 2, 100 μg/ml CDDP): 0.002
- MTT 24 h ([1]; 0.1 μg/ml CDDP): 0.083
- MTT 48 h ([1]; 0.1 μg/ml CDDP): 0.035
- MTT 72 h ([1]; 0.1 μg/ml CDDP): 0.046
- MTT 24 h ([1]; 1 μg/ml CDDP): 0.013
- MTT 48 h ([1]; 1 μg/ml CDDP): 0.008
- MTT 72 h ([1]; 1 μg/ml CDDP): 0.008
- MTT 24 h ([1]; 10 μg/ml CDDP): 0.046
- MTT 48 h ([1]; 10 μg/ml CDDP): 0.057
- MTT 72 h ([1]; 10 μg/ml CDDP): 0.068
- MTT 24 h ([1]; 100 μg/ml CDDP): 0.012
- MTT 48 h ([1]; 100 μg/ml CDDP): 0.012
- MTT 72 h ([1]; 100 μg/ml CDDP): 0.01
- Average CVE 24 h ([2]; 0.1 μg/ml CDDP): 0.303
- Average CVE 48 h ([2]; 0.1 μg/ml CDDP, 48 h): 0.393
- Average CVE 72 h ([2]; 0.1 μg/ml CDDP, 72 h): 0.418
- Average CVE 24 h ([2]; 1 μg/ml CDDP): 0.222
- Average CVE 48 h ([2]; 1 μg/ml CDDP, 48 h): 0.136
- Average CVE 72 h ([2]; 1 μg/ml CDDP, 72 h): 0.313
- Average CVE 24 h ([2]; 10 μg/ml CDDP): 0.313
- Average CVE 48 h ([2]; 10 μg/ml CDDP, 48 h): 0.47
- Average CVE 72 h ([2]; 10 μg/ml CDDP, 72 h): 0.256
- Average CVE 24 h ([2]; 100 μg/ml CDDP): 0.223
- Average CVE 48 h ([2]; 100 μg/ml CDDP, 48 h): 0.189
- Average CVE 72 h ([2]; 100 μg/ml CDDP, 72 h): 0.172
- ABSORBANCE ([2]; 48 h): 0.801
- ABSORBANCE ([2]; 72 h): 1
- CVE Average ([2]; Run 2, 24 h, 0.1 μg/ml CDDP): 0.551
- CVE Average ([2]; Run 2, 24 h, 1 μg/ml CDDP): 0.232
- CVE Average ([2]; Run 2, 24 h, 10 μg/ml CDDP): 0.504
- CVE Average ([2]; Run 2, 24 h, 100 μg/ml CDDP): 0.266
- CVE Average ([2]; Run 2, 48 h, 0.1 μg/ml CDDP): 0.801
- CVE Average ([2]; Run 2, 48 h, 1 μg/ml CDDP): 0.311
- CVE Average ([2]; Run 2, 48 h, 10 μg/ml CDDP): 0.205
- CVE Average ([2]; Run 2, 48 h, 100 μg/ml CDDP): 0.287
- CVE Average ([2]; Run 2, 72 h, 0.1 μg/ml CDDP): 1
- CVE Average ([2]; Run 2, 72 h, 1 μg/ml CDDP): 0.337
- CVE Average ([2]; Run 2, 72 h, 10 μg/ml CDDP): 0.127
- CVE Average ([2]; Run 2, 72 h, 100 μg/ml CDDP): 0.268
- CVE Average ([2]; Run 3, 24 h, 0.1 μg/ml CDDP): 0.675
- CVE Average ([2]; Run 3, 24 h, 1 μg/ml CDDP): 0.194
- CVE Average ([2]; Run 3, 24 h, 10 μg/ml CDDP): 0.398
- CVE Average ([2]; Run 3, 24 h, 100 μg/ml CDDP): 0.224
- CVE Average ([2]; Run 3, 48 h, 0.1 μg/ml CDDP): 0.624
- CVE Average ([2]; Run 3, 48 h, 1 μg/ml CDDP): 0.815
- CVE Average ([2]; Run 3, 48 h, 10 μg/ml CDDP): 0.199
- CVE Average ([2]; Run 3, 48 h, 100 μg/ml CDDP): 0.185
- CVE Average ([2]; Run 3, 72 h, 0.1 μg/ml CDDP): 0.759
- CVE Average ([2]; Run 3, 72 h, 1 μg/ml CDDP): 0.295
- CVE Average ([2]; Run 3, 72 h, 10 μg/ml CDDP): 0.155
- CVE Average ([2]; Run 3, 72 h, 100 μg/ml CDDP): 0.393
